Data taken from patent US20040171696A1, “Pharmaceutical composition for the treatment of the decline and/or damage of cognitive functions” (priority 2001, published 2004).

Key:
[1] = system: Male Wistar rats; experiment: step through passive avoidance learning; assay type: in vivo, rat; conditions: ip, FIG. 1
Experimental: Male Wistar rats weighing 200-220 g were used. The animals were obtained from Charles River Co. They were kept in a room with normal 12-12 h light dark cycle (light on: 06:00) at a relative humidity of 60±10%.
The experiment was performed in a five-channel “step through”-type passive avoidance learning apparatus. The equipment consisted of two adjacent Plexi-glass boxes of 20×20×16 cm. One of them was made of regular transparent Plexi-glass and the other one was made of black, non-transparent Plexi-glass. The boxes were connected with a 7.5×8 cm passage way, equipped with a computer-controlled guillotine-door. The passage of the rats through the door was detected by infrared photocells arranged in two parallel lines in the opening of the passage way. The door was automatically closed when the animals passed through. The dark compartment was equipped with stainless steel grid floor through which electric foot shocks could be delivered to the animals. […]
The individually numbered animals were placed into the light compartment of the equipment. […] Step through latency was automatically determined. […]
After 24 h the animals were placed again in the light compartment of the test apparatus and step-through latency was measured as described at Acquisition day, except that no foot shock was applied to the animals in any group on the second day. […]

[2] = molecular target: central 5-HT2C receptors (Homo sapiens, UniProt P28335); conditions: cited from earlier work
[3] = system: rats; conditions: 1 and 10 mg/kg per os; cited from earlier work
[4] = as low as 0.7 mg/kg intraperitoneal; cited from earlier work
[5] = per os 10 and 30 mg/kg; cited from earlier work
[6] = intraperitoneal 1 and 10 mg/kg; cited from earlier work
[7] = cited from earlier work
[8] = 3 mg/kg single subcutaneous administration; cited from earlier work
[9] = molecular target: central 5-HT2A receptors (Homo sapiens, UniProt P28223); conditions: cited from earlier work
central 5-HT2A receptors, sequence (P28223 whole entry): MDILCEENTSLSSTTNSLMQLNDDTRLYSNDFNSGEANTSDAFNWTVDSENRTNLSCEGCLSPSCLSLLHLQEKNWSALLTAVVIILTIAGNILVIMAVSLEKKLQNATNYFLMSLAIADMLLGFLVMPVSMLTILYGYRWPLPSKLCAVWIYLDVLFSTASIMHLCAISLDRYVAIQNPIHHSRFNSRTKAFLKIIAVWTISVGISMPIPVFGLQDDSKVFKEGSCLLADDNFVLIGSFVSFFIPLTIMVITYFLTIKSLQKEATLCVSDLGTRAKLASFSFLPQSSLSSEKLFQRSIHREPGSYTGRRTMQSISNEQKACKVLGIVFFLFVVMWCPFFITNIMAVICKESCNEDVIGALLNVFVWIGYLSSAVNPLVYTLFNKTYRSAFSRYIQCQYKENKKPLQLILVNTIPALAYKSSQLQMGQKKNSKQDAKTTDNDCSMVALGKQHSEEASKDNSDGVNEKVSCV

central 5-HT2C receptors, sequence (P28335 33-458): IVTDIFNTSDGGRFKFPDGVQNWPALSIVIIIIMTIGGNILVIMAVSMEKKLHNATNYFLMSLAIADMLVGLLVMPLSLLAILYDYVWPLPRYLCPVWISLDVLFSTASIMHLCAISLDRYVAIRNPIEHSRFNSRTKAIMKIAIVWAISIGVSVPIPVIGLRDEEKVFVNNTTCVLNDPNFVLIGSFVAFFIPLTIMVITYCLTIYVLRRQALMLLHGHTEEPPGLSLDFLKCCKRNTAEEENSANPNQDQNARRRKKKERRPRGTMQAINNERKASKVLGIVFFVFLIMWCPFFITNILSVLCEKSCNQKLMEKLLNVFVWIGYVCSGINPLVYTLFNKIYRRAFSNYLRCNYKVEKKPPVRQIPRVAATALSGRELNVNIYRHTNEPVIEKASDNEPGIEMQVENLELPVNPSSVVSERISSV

Row | SMILES | step-through latency into the dark compartment ([1]; Day 1 administration, 30 min before Acquisition, latency on Day 2) | step-through latency into the dark compartment ([1]; Day 2 administration, 30 min before Retention test) | binding to 5-HT2C receptors [2] | effect in Vogel lick-conflict model [3] | number of social interactions [4] | activity in marble burying test [5] | effect in learned helplessness [6] | effect on CCK agonist induced anxiety in elevated plus-maze ([7]; CCK agonist induced anxiety) | activity in elevated plus-maze, alone ([7]; deramciclane alone) | anxiolytic activity in light-dark model [8] | binding to 5-HT2A receptors [9]
1 | CN(C)CCO[C@]1(c2ccccc2)C[C@H]2CC[C@]1(C)C2(C)C.O=C(O)/C=C/C(=O)O [(1R,2S,4R)-(−)-2-(2-dimethylaminoethoxy)-2-phenyl-1,7,7-trimethyl-bicyclo[2.2.1]heptane-fumarate] | significantly increased | significantly increased | – | – | – | – | – | – | – | – | –
2 | CN(C)CCO[C@]1(c2ccccc2)C[C@H]2CC[C@]1(C)C2(C)C [deramciclane, (1R,2S,4R)-(−)-2-(2-dimethylaminoethoxy)-2-phenyl-1,7,7-trimethylbicyclo[2.2.1]heptane] | – | – | binds | effective | increased the number of social interactions | displayed significant activity | effective | antagonized CCK agonist induced anxiety | completely inactive | showed anxiolytic activity | binds
